The subject of data set [1] is AEC-I monolayers. The experiment in a line: Monolayer permeability, FITC-labeled streptavidin binding to biotin. It is filed as cell-based, rat. The source says:
To obtain monolayer rat type-II alveolar epithelial cells (AEC-II), cells were isolated from Sprague-Dawley rats (250-300 g, N=30 purchased from Charles River Laboratories, Wilmington, Mass.) described by Tschumperlin D J, Margulies SS. Equibiaxial deformation-induced injury of alveolar epithelial cells in vitro. Am J Physiol. 1998; 275(6 Pt 1):L1173-83. Epub 1998/12/09 (PubMed PMID: 9843855), with modifications. Briefly, animals were killed and the lungs were harvested. The lung tissue was digested with elastase at 37° C. and distal airways were isolated. Following, cells were placed on rat IgG coated containing no serum for 90 minutes to eliminate contaminating leukocytes and parenchymal cells. This isolation method yielded approximately 95% pure alveolar epithelial cell population. 1.3 million cells were plated on 1 cm diameter fibronectin-coated custom made silastic membranes. In permeability studies, biotin were mixed with fibronectin and membranes were pretreated with oxygen plasma coating to ensure homogenous distribution of the fibronectin. Cells were cultured with 10% fetal bovine serum (FBS)-containing Minimal Essential Medium (MEM) containing low dose antibiotics for 3 days. 32 to 40 monolayers were per rat. On the 3rd day, matured monolayers were randomized to be exposed to one of the treatments for 24 hours (N=3 monolayers/treatment): • A. RNAiMax transfection reagent treatment using serum free media (Opti-MEM, Thermo Fisher Scientific, Waltham, Mass.). This is a negative control for siRNA experiments where serum free media is used for improved transfection efficiency; • B. non-targeting siRNA treatment ([…], Dharmacon) serves a negative control for transfection; • C. […]
The dose of siRNA and PI treatment was selected based on dose-response curves above (FIG. 2A-FIG. 2E). […] All membranes were treated with FITC-labeled streptavidin (Thermo Fisher Scientific) at the end of the experiment and light emission was detected at 488 nm with fluorescent microscopy (Nikon TE300, Melville, N.Y.). […]

The subject of data set [2] is cleaved caspase 3 (Casp3) in AEC-I monolayers. In kind it is cell-based, rat.

With tunicamycin, the monolayer permeability result in data set [1] (1 ug/ml tunicamycin 24 hrs treatment, vs DMSO vehicle control) was “increased permeability”. For the same compound, the “cell death measured with cleaved caspase 3 (Casp3)” value in data set [2] (tunicamycin 1 μg/ml 24 hrs) is reported as “not related to increased cell death”.
As to `O=C(/C=C/c1ccccc1)NC(NC(=S)Nc1cccc2cccnc12)C(Cl)(Cl)Cl` (stereo not shown) [salubrinal], the monolayer permeability entry in data set [1] (10 uM salubrinal 2 hrs pretreatment) is given as “increased permeability”. Besides, the Casp3 levels result in data set [2] (salubrinal, unstretched and stretched monolayers) was “significant increase”.

For the origin of these results see US11026945B2, “Protein kinase RNA-like endoplasmic reticulum kinase (PERK) inhibitors for prevention and/or treatment of lung injury and/or inflammation” (THE TRUSTEES OF THE UNIVERSITY OF PENNSYLVANIA, priority 2016, dated 2021).
